Measurements from patent US20110207779A1, “PROCESS FOR THE PREPARATION OF ESOMEPRAZOLE MAGNESIUM” (GLENMARK GENERICS LTD, priority 2010, published 2011).

Test: R-isomer content of formulated esomeprazole magnesium dihydrate after incubation in a closed container (chiral HPLC)
Format: physicochemical
Settings: formulated in above mentioned dosage forms (capsules, mini-tablets); incubated in a closed container; temperature and time not given
Experimental: The content of R-isomer in esomeprazole magnesium dihydrate was measured by chiral high performance liquid chromatography equipped with quaternary gradient pumps, variable wavelength UV detector attached with data recorder and integrator software under the following conditions:
Buffer preparation: mix 70 mL of 156.0 g/l solution of sodium dihydrogen phosphate R with 20 mL of a 179.1 g/l solution of disodium hydrogen phosphate R. Dilute with water to 1000 mL and then dilute 250 mL of this solution with water to 1000 ml. Mobile phase: Acetonitrile: buffer solution pH 6.0 (65:435, v/v).

## COc1ccc2[n-]c([S@@+]([O-])Cc3ncc(C)c(OC)c3C)nc2c1.COc1ccc2[n-]c([S@@+]([O-])Cc3ncc(C)c(OC)c3C)nc2c1.O.O.[Mg+2] [Esomeprazole magnesium dihydrate, esomeprazole magnesium dihydrate]
  R-isomer content after formulation and incubation (chiral stability): remains within the range of R-isomer content
